# Values quoted from earlier work, collected in US20240366505A1, “Liquid Resin Extended-Release Oral Naltrexone Formulation for Treating Autism-Related Disorders” (AARDVARK THERAPEUTICS, INC., priority 2022, published 2024).
# Like-named read-outs stand apart in the source and are kept apart here.
# How the values were obtained:
# [1] = single 50 mg REVIA tablet
# [2] = 6-β-naltrexol; 50 mg REVIA tablets once daily for 7 days
# autistic behavior = conditions: 0.5, 1.0 and 2.0 mg/kg immediate release oral
# children with ASD = conditions: 1.0 mg/kg single daily immediate release oral dose, 12 or 14 days
# ASD children = conditions: 20 mg immediate release per day for 4 weeks
# [3] = in vivo
# [4] = 50 mg once daily
SMILES,"AUC(0-inf) ([1]; 6-β-naltrexol, mean (CV%)) [ng·h/mL]","Cmax ([1]; 6-β-naltrexol, mean (CV%)) [ng/mL]","Tmax ([1]; 6-β-naltrexol, mean (CV%)) [h]",AUC(0-τ) [2] [ng·h/mL],Cmax [2] [ng/mL],"Tmax ([1]; naltrexone, Mean (CV %)) [h]",effect on autistic behavior and gaze aversion (autistic behavior),"changes in parent measures (CGI, Conners IHF, SE-Restlessness) and Teacher CGI (children with ASD)",CGI ratings of the teachers (ASD children),behavior ratings completed by the teachers (Aberrant Behavior Checklist (ABC) scores) (ASD children),"incidence of difficulty sleeping, anxiety, nervousness, abdominal pain/cramps, nausea and/or vomiting, low energy, joint/muscle pain, headache [3]","incidence of loss of appetite, diarrhea, constipation, thirstiness, increased energy, feeling down, irritability, dizziness, skin rash, delayed ejaculation, erectile dysfunction, chills [3]",accumulation (after 100 mg daily doses),"excretion of parent drug and metabolites by the kidney (human, in vivo)","dose absorbed from the gastrointestinal tract (human, in vivo, po)",urinary excretion of unchanged naltrexone (immediate release formulations),dose proportionality of AUC and Cmax (over the range of 50-200 mg),rate of early discontinuation of treatment versus placebo [4],"adverse effects versus placebo ([4]; weeks 1, 5 and 8)"
Oc1ccc2c3c1O[C@H]1[C@H](O)CC[C@@]4(O)[C@@H](C2)N(CC2CC2)CC[C@]314 [6-β-naltrexol],717.3,85.6,1.05,788 ± 134.8,96.1 ± 21.05,,,,,,,,,,,,,,
"O=C1CC[C@@]2(O)[C@H]3Cc4ccc(O)c5c4[C@@]2(CCN3CC2CC2)[C@H]1O5 [naltrexone, 17-(cyclopropylmethyl)-4,5α-epoxy-3,14-dihydroxy-morphinan-6-one]",,,,,,1.07,reverse autistic behavior and gaze aversion,achieved statistical significance,Significant difference,significant changes,Greater than 10%,Less than 10%,do not accumulate,53-79 % of the dose,approximately 96%,less than 2 % of an oral dose,dose-proportional,greater rate,significantly more adverse effects
